Consider 14 compounds from PubChem BioAssay (NCI).

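Cells were grown in 96-well plates and exposed to each compound for 48 hours at five concentrations; endpoints were interpolated linearly between bracketing concentrations, or set to the highest concentration if not reached. TGI is the concentration that stops growth completely.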

Some test systems named below: HOP-62 NSCLC; HT29 colon; SF-295 CNS; SNB-75 CNS; OVCAR-3 ovarian; RPMI-8226 leukemia; MALME-3M melanoma; SNB-19 CNS; SK-OV-3 ovarian; SF-539 CNS; NCI-H226 lung; NCI-H23 lung; K-562 leukemia; COLO 205 colon; ACHN renal; BT-549 breast; MCF7 breast; HS 578T breast; MDA-MB-435.
Assay in all cases: inhibition of tumour cell growth, NCI panel, 48 h

For `O=C(O)Cc1cccc2c1Oc1ccccc1S2`, the TGI in the assay on HOP-62 NSCLC, in the assay on HT29 colon, in the assay with SF-295 CNS, with SNB-75 CNS, with OVCAR-3 ovarian and in the assay on RPMI-8226 leukemia was above 100 µM throughout. Besides, the TGI in the assay with MALME-3M melanoma, with SNB-19 CNS, in the assay with SK-OV-3 ovarian, with SF-539 CNS, in the assay on NCI-H226 lung and in the assay on NCI-H23 lung was above 100 µM each time. Moreover, the TGI in the assay with K-562 leukemia, with COLO 205 colon and in the assay with ACHN renal was above 100 µM in each case.

With `COc1cc(-c2cc(=O)c3c(O)c(OC)c(OC)c(OC)c3o2)ccc1O`, the TGI in the assay on HOP-62 NSCLC is 77.3 µM; with SF-295 CNS, 60.5 µM; in the assay with OVCAR-3 ovarian, above 100 µM; with RPMI-8226 leukemia, above 100 µM; in the assay with MALME-3M melanoma, above 100 µM; in the assay on SNB-19 CNS it was above 100 µM. Also, the TGI in the assay on SK-OV-3 ovarian was 76 µM; in the assay on SF-539 CNS it was 35.9 µM; in the assay with NCI-H23 lung, above 100 µM; with K-562 leukemia, above 100 µM; in the assay with ACHN renal, above 100 µM.

Take `CCOC(=O)c1cc2c(nc1N)-c1ncccc1CC2`: the TGI in the assay with HOP-62 NSCLC is above 100 µM; with HT29 colon, above 100 µM; in the assay on SF-295 CNS, above 100 µM; in the assay on SNB-75 CNS it was above 100 µM; with OVCAR-3 ovarian, above 100 µM; in the assay with RPMI-8226 leukemia, 68.8 µM. In addition, the TGI with MALME-3M melanoma, in the assay on SNB-19 CNS, in the assay with SK-OV-3 ovarian, with SF-539 CNS, with NCI-H226 lung and in the assay on NCI-H23 lung was above 100 µM each time. The results for the TGI in the assay on K-562 leukemia, with COLO 205 colon and in the assay with ACHN renal were above 100 µM, 69.2 µM and above 100 µM, respectively.

For `O=P1(c2ccccc2)c2ccccc2CCc2ccccc21`, the TGI in the assay with HOP-62 NSCLC, in the assay on BT-549 breast, in the assay with SF-295 CNS, in the assay on SNB-75 CNS, in the assay on OVCAR-3 ovarian and in the assay with MCF7 breast was above 100 µM in each case. The TGI in the assay on RPMI-8226 leukemia, with SNB-19 CNS, with SK-OV-3 ovarian, in the assay on SF-539 CNS, in the assay with HS 578T breast and in the assay with NCI-H226 lung was above 100 µM in each case. In addition, the TGI in the assay with NCI-H23 lung, with MDA-MB-435 and with COLO 205 colon was above 100 µM each time.

For the compound `CC(Oc1ccc(OCC2CCCCC2)cc1)C(N)=O` (configuration not stated), the TGI with HT29 colon, with SF-295 CNS, in the assay on SNB-75 CNS, in the assay on OVCAR-3 ovarian, in the assay on MALME-3M melanoma and in the assay with SK-OV-3 ovarian was above 100 µM in each case. The TGI in the assay with SF-539 CNS, with NCI-H226 lung, with NCI-H23 lung, in the assay on K-562 leukemia and with ACHN renal was above 100 µM each time.

`CC(O)C(N=Cc1nc(-c2ccccc2)oc1O)C(=O)O` (configuration not stated): the TGI with HOP-62 NSCLC, with HT29 colon, in the assay with SF-295 CNS, in the assay with SNB-75 CNS, in the assay on OVCAR-3 ovarian and in the assay on RPMI-8226 leukemia was above 100 µM in each case. The TGI in the assay with MALME-3M melanoma, in the assay with SNB-19 CNS, in the assay on SK-OV-3 ovarian, in the assay with SF-539 CNS, with NCI-H226 lung and in the assay with NCI-H23 lung was above 100 µM in each case. Besides, the TGI in the assay with K-562 leukemia, in the assay with COLO 205 colon and in the assay with ACHN renal was above 100 µM in each case.

As to `O=C1CCCC/C1=C1\C(=O)Nc2cc(F)ccc21`, the TGI with HOP-62 NSCLC, with HT29 colon, in the assay on SF-295 CNS, with SNB-75 CNS, with RPMI-8226 leukemia and in the assay with MALME-3M melanoma was above 100 µM in each case. Further, the TGI in the assay with SNB-19 CNS, in the assay on SK-OV-3 ovarian, in the assay with SF-539 CNS, with NCI-H226 lung, in the assay with NCI-H23 lung and in the assay on K-562 leukemia was above 100 µM in each case. Also, the TGI with COLO 205 colon and in the assay with ACHN renal was above 100 µM in each case.

As for `Cc1c(-c2nnc(-c3ccc(Cl)cc3)o2)c(=O)n(-c2ccccc2)n1C`, the TGI in the assay on HOP-62 NSCLC, with HT29 colon, with SF-295 CNS, in the assay with SNB-75 CNS, in the assay on OVCAR-3 ovarian and with RPMI-8226 leukemia was above 100 µM throughout. Moreover, the TGI was above 100 µM in the assay with MALME-3M melanoma; above 100 µM in the assay with SNB-19 CNS; above 100 µM with SK-OV-3 ovarian; 90.1 µM with SF-539 CNS; above 100 µM with NCI-H226 lung; above 100 µM in the assay with NCI-H23 lung. The TGI in the assay with K-562 leukemia, in the assay on COLO 205 colon and with ACHN renal was above 100 µM each time.

Regarding `CC(=O)C1=C(C)Cn2c(=O)c3ccccc3c(=O)n2C1`, the TGI in the assay on HOP-62 NSCLC, in the assay on HT29 colon, with SF-295 CNS, in the assay on SNB-75 CNS, in the assay on OVCAR-3 ovarian and with RPMI-8226 leukemia was above 100 µM throughout. In addition, the TGI with MALME-3M melanoma, in the assay on SNB-19 CNS, in the assay with SK-OV-3 ovarian, in the assay with SF-539 CNS, with NCI-H226 lung and in the assay with NCI-H23 lung was above 100 µM each time. The TGI with K-562 leukemia, in the assay on COLO 205 colon and with ACHN renal was above 100 µM in each case.

`CC1(C)OC(C[C@]2(C#N)C[C@H](CCl)OC(C)(C)O2)C[C@@H](C[C@]2(C#N)C[C@H](CCl)OC(C)(C)O2)O1` (some centres not stated): the TGI in the assay on HOP-62 NSCLC, with HT29 colon, in the assay on SF-295 CNS, in the assay on SNB-75 CNS, with OVCAR-3 ovarian and with RPMI-8226 leukemia was above 100 µM in each case. Moreover, the TGI in the assay with MALME-3M melanoma, in the assay on SNB-19 CNS, with SK-OV-3 ovarian, with SF-539 CNS, in the assay with NCI-H226 lung and in the assay on NCI-H23 lung was above 100 µM throughout. For the same compound, the TGI in the assay with K-562 leukemia, in the assay with COLO 205 colon and in the assay with ACHN renal was above 100 µM in each case.

In the case of `CC1(C)CC(=O)C2=C(C1)S/C(=C1/SC3=C(S1)C(=O)CC(C)(C)C3)S2`, the TGI with HOP-62 NSCLC, with HT29 colon, in the assay with SF-295 CNS, in the assay with SNB-75 CNS, in the assay with OVCAR-3 ovarian and in the assay with RPMI-8226 leukemia was above 251 µM throughout. Besides, the TGI with MALME-3M melanoma, in the assay on SNB-19 CNS, in the assay on SK-OV-3 ovarian, with SF-539 CNS, in the assay with NCI-H23 lung and in the assay on K-562 leukemia was above 251 µM throughout. Moreover, the TGI with COLO 205 colon and with ACHN renal was above 251 µM in each case.

Regarding `CCCCCC[C@H]1CC(=O)C2CCCC[C@@]23CC[C@H](CCl)N13` (some centres not stated) (tested in a mixture with another compound), the TGI in the assay with HOP-62 NSCLC was above 100 µM; in the assay on HT29 colon it was above 100 µM; with SF-295 CNS, above 100 µM; in the assay on SNB-75 CNS, 81.6 µM; with OVCAR-3 ovarian, above 100 µM; in the assay on MCF7 breast it was 96.9 µM. The TGI was 61.6 µM in the assay on RPMI-8226 leukemia; above 100 µM in the assay on MALME-3M melanoma; above 100 µM in the assay with SNB-19 CNS; above 100 µM with SK-OV-3 ovarian; above 100 µM with SF-539 CNS; 60.4 µM in the assay with HS 578T breast. In addition, the TGI in the assay on NCI-H23 lung, in the assay with K-562 leukemia, in the assay on MDA-MB-435 and in the assay with ACHN renal was above 100 µM throughout.

Regarding `C=CCC(CC=O)(C(=O)OCC)C(=O)OCC`, the TGI with HOP-62 NSCLC, in the assay with HT29 colon, with SF-295 CNS, in the assay with SNB-75 CNS, with OVCAR-3 ovarian and with MCF7 breast was above 100 µM throughout. The TGI in the assay on RPMI-8226 leukemia, with MALME-3M melanoma, in the assay with SNB-19 CNS, in the assay with SK-OV-3 ovarian, with SF-539 CNS and in the assay on HS 578T breast was above 100 µM in each case. Also, the TGI with NCI-H226 lung, in the assay with NCI-H23 lung, in the assay on K-562 leukemia, with MDA-MB-435, in the assay on COLO 205 colon and with ACHN renal was above 100 µM each time.

Turning to `CCC1(CCSC(=N)N)C(=O)NC(=O)NC1=O`, the TGI in the assay on HOP-62 NSCLC, with HT29 colon, in the assay with BT-549 breast, in the assay with SF-295 CNS, in the assay with OVCAR-3 ovarian and in the assay on MCF7 breast was above 100 µM throughout. For the same compound, the TGI in the assay on RPMI-8226 leukemia, in the assay on MALME-3M melanoma, in the assay with SNB-19 CNS, in the assay on SK-OV-3 ovarian, with SF-539 CNS and in the assay with HS 578T breast was above 100 µM throughout. In addition, the TGI in the assay on NCI-H226 lung, with NCI-H23 lung, in the assay with K-562 leukemia, in the assay on MDA-MB-435, with COLO 205 colon and in the assay on ACHN renal was above 100 µM each time.
